Legend:
[1] = Refractive index (abbe refractometer); type: physicochemical; settings: 25° C., 589 nm, value at 100% by mass by extrapolation
Protocol: The refractive index of each sample was measured using an abbe refractometer (“NAR-lT” manufactured by ATAGO CO., LTD.) at a temperature of 25° C. and a wavelength of 589 nm. Depending on the species of each sample, the refractive index was measured as follows.
For the after-mentioned 16NDSH, 15NDSH, 26NDSH and 27NDSH; 15DGNDSH; 15DHENDSH; 16DMNDSH and 15DMNDSH; and 16DCNDSH and 15DCNDSH, a sample was dissolved in 1,3-dimethyl-2-imidazolidinone (DMI) to prepare multiple solutions with different concentrations, and the refractive index of each solution was measured at a temperature of 25° C. and a wavelength of 589 nm. From the results of the refractive index at each concentration, the refractive index value at 100% by mass of the concentration was determined by extrapolation.
For the after-mentioned 16NDSHMA, 15NDSHMA, 26NDSHMA and 27NDSHMA; 16NDSHA and 15NDSHA; 15DANDSH; and 15DVNDSH, polymerization may occur during the mixing, and thus a sample was dissolved in a methoquinone/DMI solution (a solution containing 4000 ppm of methoquinone relative to the mass of DMI) to prepare multiple solutions with different concentrations. The refractive index of each solution was measured at a temperature of 25° C. and a wavelength of 589 nm. From the results of the refractive index at each concentration, the refractive index value at 100% by mass of the concentration was determined by extrapolation.
For the after-mentioned 16DANDSH; 16DVNDSH; 16DGNDSH; and 16DHENDSH, a sample was liquid for a while after preparation, and thus the refractive index was measured in the state of an undiluted solution. Further, thiol-ene-based resins (thiol-ene-based resins obtained from 16NDSH or 15NDSH and divinylbenzene) were measured in the same manner. […]

[2] = Dissolubility or compatibility (maximum dissolved concentration, HPLC); type: physicochemical; settings: 25° C.; for Dissolubility, MMA: methyl methacrylate; for Dissolubility, PGMEA: propylene glycol monomethyl ether acetate; for Dissolubility, DMF: N,N-dimethylformamide; for Dissolubility, THF: tetrahydrofuran
Protocol: In more detail, the sample was added to a predetermined amount of a solvent or a polymerizable component until the sample was no longer dissolved, and the sample content of the liquid layer (the solvent layer) of the resulting mixture was analyzed using an HPLC (“SPD-20A” manufactured by SHIMADZU CORPORATION), and thus the concentration (the maximum dissolved concentration) of the sample in the liquid layer (the solvent layer) was determined as a solubility.

[3] = DMI solutions of different concentrations

Row | Refractive index [1, 3] | melting point [°C] | Dissolubility, Ethyl acetate [2] | Dissolubility, MMA [2] [% by mass] | Dissolubility, PGMEA [2] [% by mass] | Dissolubility, Styrene [2] [% by mass] | Dissolubility, Toluene [2] | Refractive index ([1]; methoquinone/DMI solutions) | Dissolubility, DMF [2] [% by mass] | Dissolubility, Methanol [2] [% by mass] | Dissolubility, THF [2] [% by mass] | SMILES
1 | 1.690 | 52 to 53 | Freely blended (>90) % by mass | 62.3 | 42.3 | 68.7 | Freely blended (>90) % by mass |  |  |  |  | CSc1ccc2c(SC)cccc2c1 [Example 16DMNDSH, 1,6-bis(methylthio)naphthalene]
2 |  | 64 to 66 | 56.3 % by mass | 55.7 | 44.3 | 59.4 | 58.4 % by mass | 1.667 |  |  |  | C=CC(=O)Sc1ccc2c(SC(=O)C=C)cccc2c1 [Example 16NDSHA, 1,6-bis(acryloylthio)naphthalene]
3 | 1.718 | 196 to 197 | 0.65 % by mass |  | 0.73 |  | 0.64 % by mass |  | 3.54 | 0.11 | 4.03 | Sc1ccc2cc(S)ccc2c1 [Example 26NDSH, 2,6-naphthalenedithiol]
4 | 1.721 | 186 to 188 | 0.90 % by mass |  | 1.05 |  | 0.76 % by mass |  | 7.75 | 0.16 | 5.24 | Sc1ccc2ccc(S)cc2c1 [Example 27NDSH, 2,7-naphthalenedithiol]
